Blank lines part the entries; values can stand above or below the compound they belong to.
Assays:
[1] = Paclitaxel loading (solubilisation) by CD polymers or CD monomers; assay type: physicochemical
Experimental: Preparation of Paclitaxel Complexes with CD Polymers or CD Monomers
(A) Co-dissolving Method: This Method is Suitable for all Complexes with Water Soluble Polymers
The aqueous solution of polymer (or monomer controls) (usually about 100 mg/ml) was mixed with equal volume (usually 40 to 2000 ul) of the paclitaxel solution (Cpaclitael=0.1 to 8.0 mg/ml in methanol). The mixture was incubated at room temperature for about half an hour. Then the solvents were removed in a centrifuge concentrator at room temperature. The concentrated syrup or wax solid was reconstituted by adding water or PBS buffer to the original volume. The mixture was usually a clear or slightly cloudy solution after 30 minutes of reconstitution. The un-dissolved paclitaxel particles were removed either by ultra-filtration (0.2 um filter) or by centrifugation (20 minutes at 20,800 g and room temperature). The paclitaxel concentration in the clear supernatant was quantified by UV absorbance at […] by using the corresponding cyclodextrin polymer solution as the background calibration.
(B) Dialysis Method: This Method is Suitable for the Preparation of all Paclitaxel/polymer Complex Solutions:
The methanol solution of the polymer (usually […]) was mixed with equal volume (100 ul) of paclitaxel solution (1 to 3 mg/ml in methanol). The clear mixture was incubated at room temperature for about half an hour at room temperature, followed by dialysis (MWCO=12,000) overnight against 2 L water. The dialysis solution was usually a clear solution. Trace amounts of paclitaxel particles were removed either by ultra-filtration (0.2 um filter) or by centrifugation (20 minutes at 20,800 g and room temperature). The clear solution was stored at 4° C. or below.

[2] = Stability of Taxol/CD complexes after 10 fold dilution with PBS; assay type: physicochemical; settings: paclitaxel complex, 10X PBS, room temperature
Experimental: (§1) Stability of Taxol/CD Complexes in 50% Serum or After 10 Fold Dilution in PBS:
(§2) • (A) Stability in 50% fetal bovine serum: Taxol/PEG-L8-AcCD (2.0 mg/50 mg in 1.0 ml PBS buffer) or Taxol/DMCD (0.5 mg/50 mg in PBS buffer) complex solutions were prepared as describe in method A of example 7. Fifty micro liters of the complex solutions were diluted with equal volume of fetal bovine serum respectively. Both mixtures were centrifuged at […] at room temperature after incubation at room temperature for 2 hours, 21 hours, 49 hours and 144 hours, respectively. The Taxol concentration in each supernatant was quantified by measuring the UV absorption at 230 nm. • (B) Stability after 10 fold dilution with PBS: Taxol/PEG-L8-AcCD (2.0 mg/50 mg in 1.0 ml PBS buffer) or Taxol/DMCD (0.5 mg/50 mg in PBS buffer) complex solutions were prepared as describe in example 10. Fifty micro liters of the complex solutions were diluted with 450 micro liter of PBS buffer, respectively. Both mixtures were centrifuged at […] at room temperature after incubated room temperature for 2 hours, 21 hours, 49 hours and 144 hours. The Taxol concentration in each supernatant was quantified by measuring the UV absorption at 230 nm.

[3] = at 50% CD concentrations; cited from earlier work
human red blood cells = assay: Hemolysis on fresh human blood cells; assay type: cell-based; settings: for Hemolysis (HC50, mM): human red blood cells, 30 minutes at 37° C., 0 to 50 mg/ml in PBS
Experimental: To further investigate the cytotoxicity of our polymers and their possible biodegradation products, their hemolysis effects were tested on fresh human blood cells in comparison with commercial CD monomers as describe below. The degree of hemolysis was reported as a percentage of the total efflux of hemoglobin in distilled water (Table 6)
1. Red blood cells were isolated from whole human blood by centrifugation at 1000 g for 10 minutes.
2. The plasma was removed and the red blood cells re-suspended in normal buffed saline (PBS, 0.154 M sodium chloride and 0.01 M phosphate, pH=7.4). The red blood cells were pelleted by centrifugation (1000 g for 10 minutes).
3. Step 2 was repeated twice to remove the heme released from damaged cells.
4. The final pellet was diluted with PBS to give a hematocrit of approximately 12 (or 5%) as determined by centrifugal sedimentation.
5.2 ml of polymer or cyclodextrin solutions of a series of concentrations from 0 to 50 mg/ml in PBS buffer) equilibrated at 37° C. in PBS buffer were equilibrated at 37° C. To this was added 100 ul of a red blood cell suspension followed by mixing of the sample with gentle inversion. The samples were incubated for 30 minutes at 37° C.
6. The intact cells and cellular debris were pelleted by centrifugation at 1000 g for 5 min. The supernatant was analyzed spectrophotometrically at 543 nm for released heme.

[4] = Stability of Taxol/CD complexes in 50% fetal bovine serum; assay type: physicochemical; settings: paclitaxel complex, 50% Serum, room temperature
Experimental: as §1, §2

[5] = Drug amount in 1.0 ml water or PBS in the presence of 50 mg of polymer or other CD derivatives

Compound: Mono-6-(8-amino-3,6-dioxy-octylamino)-6-deoxy-β-cyclodextrin [CD-L8-NH2]
toxicity compared with natural β-cyclodextrin (human red blood cells): much less toxic
Hemolysis (HC50, mM) (human red blood cells): 25 mM

Compound: OC[C@H]1O[C@@H]2O[C@H]3[C@H](O)[C@@H](O)[C@@H](O[C@H]4[C@H](O)[C@@H](O)[C@@H](O[C@H]5[C@H](O)[C@@H](O)[C@@H](O[C@H]6[C@H](O)[C@@H](O)[C@@H](O[C@H]7[C@H](O)[C@@H](O)[C@@H](O[C@H]8[C@H](O)[C@@H](O)[C@@H](O[C@H]1[C@H](O)[C@H]2O)O[C@@H]8CO)O[C@@H]7CO)O[C@@H]6CO)O[C@@H]5CO)O[C@@H]4CO)O[C@@H]3CO [βCD, β-cyclodextrin]
Hemolysis (HC50, mM) (human red blood cells): 4.0 mM

Now from value to compound, other results behind:

Paclitaxel loading (mg/50 mg polymer) ([1]; at day 1, drug amount in 1.0 ml water or PBS in the presence of 50 mg of CD derivative): ˜0.2 (at day 1) mg/50 mg polymer
Remaining paclitaxel % in diluted solution ([2]; 0 hour): 100%
Remaining paclitaxel % in diluted solution ([2]; 2 hour): 86%
Remaining paclitaxel % in diluted solution ([2]; 21 hour): 13%
Remaining paclitaxel % in diluted solution ([4]; 0 hour): 100%
Remaining paclitaxel % in diluted solution ([4]; 2 hour): 100%
Remaining paclitaxel % in diluted solution ([4]; 21 hour): 100%
Remaining paclitaxel % in diluted solution ([4]; 49 hour): 100%
Remaining paclitaxel % in diluted solution ([4]; 144 hour): 100%
Compound: methyl-β-cyclodextrin [DM-CD]
paclitaxel dissolved [3]: ~33 mg/mL
Hemolysis (HC50, mM) (human red blood cells): 1.0 mM

Paclitaxel loading (mg/50 mg polymer) [1, 5]: <0.05 mg/50 mg polymer
Compound: sulfobutylether-β-cyclodextrin [(SBE)7-CD]

Paclitaxel loading (mg/50 mg polymer) [1, 5]: <0.05 mg/50 mg polymer
Compound: hydoxylpropyl β-cyclodextrin [HP-CD]
paclitaxel dissolved [3]: about 0.7 mg/ml
Hemolysis (HC50, mM) (human red blood cells): 35 mM

— US7141540B2, “Cyclodextrin grafted biocompatible amphilphilic polymer and methods of preparation and use thereof” (Genta Salus LLC, priority 2001, dated 2006)
